“And” between values parts separate entries of the source, which are not always exact repeats. Equal entries are not always repeated. Where two headings read alike, the source gives them in different places.
What was measured:
[1] = at 25° C.; cited from earlier work
[2] = cited from earlier work
[3] = cited from earlier work; remark: listed apart in the source
[4] = THC on swab and in spit after cannabis inhalation (HPLC-MS); conditions: saliva spit into collection vial after inhaling cannabis; one line per volunteer (V14, V27, V40)

For CCCCCc1cc(O)c2c(c1)OC(C)(C)[C@@H]1CCC(C)=C[C@@H]21 [THC, Δ^9-tetrahydrocannabinol], the vapor pressure [1] is listed as 4.6×10^−8 mmHg, the “time for the concentration in the body to build up to intoxication levels” value ([2]; after being consumed) is listed as “at least 20 minutes” and the “psychoactive effects of THC felt after initial consumption” value ([2]; after inhalation, estimated) is listed as 2 to 4 h. The “time THC can be detected in the blood” value ([3]; after inhalation, blood analyses by GC-MS or LC-MS) was 3.5 to 5.5 h, the “time detectable in human samples after use” value ([3]; chronic users) was “up to 15 days” and the “time detectable in human samples after use” value ([3]; occasional users) was 1.3 days. For the same molecule, the “THC in Spit” value [4] was 2110.1 ng and 2259.2 ng and 129.6 ng.

Reference: US11726102B2, “Particle-based drug detection method and device embodiments” (Washington State University, priority 2015, dated 2023)
